In one assay the test system is Mice, C57BL/6J, male. Description: Novel object recognition (NOR) test, long-term memory. The assay is classed as in vivo. The settings on record: for DI Discrimination Index = 100 × (N − F)/(N + F) / N − F Exploration time novel − familiar object: choice trial 72 h post treatment, mean, N = 16; for recognition of the familiar object, i.e. memory: 3-days interval. How it is done:
Long-term episodic memory was tested in the NOR test, using a 3-days interval between the acquisition session (called sample trial) and the retention session (called choice trial). This method allows to detect an improvement of memory in the natural forgetting condition:
The test was carried out in circular boxes (30 cm diameter, 40 cm high). The objects to be discriminated (L≈1≈h≈3-4 cm) differed in both color and shape and were referred as yellow duck and blue lego. They were fixed with a magnet to the floor of the boxes at 5 cm of the wall, 20 cm distant. Apparently, they have no natural significance for mice and they have never been associated with a reinforcement. In order to rule out the possibility of scent traces left on the objects and therefore the dependency of the recognition capacity of mice on the olfactory cue, the objects and the ground of the box were washed with an odorless disinfectant (Sanicid® diluted in water) and dried between each trial. A camcorder was fixed to the ceiling above the box to record the animals' activity. The experiment was analyzed blindly at a later time.
On the week before the test, animals were handled by the experimenter in charge of the experiment in order to be not stressed at the time of testing. For this purpose, the experimenter placed a small amount of litter, and then the mouse on its hand. […] The NOR test was completed over five days (see FIG. 1): • Day 1: Habituation trial. Animals were individually placed for a 15-min free exploration session in empty open boxes. • Day 2. Treatment administration and sample trial. […] They were individually placed 30 min after in the apparatus for a 6-min session with two identical objects (Duck, 50% of animals or Lego, 50% of animals). • […]. […]. The mice were individually placed for a 6-min session in the apparatus with two objects (Duck and Lego), one of the objects presented in sample trials (termed as familiar objects) and a novel object (Lego, 50% of animals or Duck, 50% of animals).
The sample and choice trials were recorded with the camera located above the apparatus. The time spent by mice in exploring the objects was measured during the sample trial and the choice trial.
Exploration of an object was defined as follows: directing the nose to the object at a distance≤2 cm and/or touching it with the nose or forelimbs: turning around or biting the object, or sitting on the object were not considered as exploratory behavior.
Data recorded: • L=exploration time of the left object in the sample trial. • R=exploration time of the right object in the sample trial. • N=exploration time of the new object in the choice trial. • F=exploration time of the familiar object in the choice trial. Object recognition task indices include the following parameters: • Exploration indices: • ST=L+R=exploration time (left object+right object) in the sample trial. • CT=N+F=exploration time (new object+familiar object) in the choice trial. • Two memory indices: • N−F=difference of exploration time between the new object and the familiar object in the choice trial.
Statistical analyses: • Read-outs: DI, N−F, ST, CT, N, F • Unpaired Student's t test: Donep 2 group vs. Control group. • One-way ANOVA, Dunnett test: • Benedin groups vs. Control group. • Benedin groups vs. Donep 2 group. • Read-outs: DI and N−F, for all groups, paired Student's t test, difference vs. 0. • Body weight: one-way ANOVA.

In assay [1] the target is T1, NET (h) (antagonist radioligand) (Homo sapiens, UniProt P23975).
T1 construct: CEREP (Eurofins, France), contract panel
Kind of assay: Radioligand binding panel (Eurofins/CEREP), NET. Conditions: % inhibition of control specific binding. How it is done:
(§1) Benedin was tested at 10^−5 M, calculated as a % inhibition of control specific binding of a radioactively labeled ligand specific for each target.
(§2) This binding profile panel was broadly defined with roughly an equal number of selective, central and peripheral therapeutically relevant targets, including native animal tissues, radioligands and specific enzymes involved in cell cycle regulation in accordance with Eurofins Standard Operating Procedure.
(§3) For radioligand binding experiments, the half maximal inhibitory concentration (IC50) and the half maximal effective concentration (EC50) values were determined (via computer software) by nonlinear regression analysis of the competition curves using Hill equation curve fitting. The inhibition constants (Ki) were calculated using the Cheng-Prusoff equation (Ki=IC50/(1+(L/KD)), where L is the concentration of radioligand in the assay, and KD is the affinity of the radioligand for the receptor.^60
(§4) The results are expressed as a % control specific binding ([measured specific binding/control specific binding]×100) and as a % inhibition of control specific binding (100−[(measured specific binding/control specific binding)×100] obtained in the presence of the test compounds. […]

The target of assay [2] is T2, M3 (h) (antagonist radioligand) (Homo sapiens, UniProt P20309).
T2 construct: CEREP (Eurofins, France), contract panel
Description: Radioligand binding panel (Eurofins/CEREP), M3. Conditions: 10^−5 M; % inhibition of control specific binding; read-out: % Inhibition at 10^−5M Benedin. How it is done: as §1, §2, §3, §4

Molecules are shown by their SMILES.

From patent US20240316023A1, “BENEDIN, PIPERIDINE, 2-BENZHYDRYL-3-HYDROXY-N-METHYL-, HYDROCHLORIDE AND DERIVATIVES THEREOF FOR USE IN TREATING KLEINE-LEVIN SYNDROME” (priority 2021, published 2024) come the findings set out here.

T1 sequence (P23975 whole entry): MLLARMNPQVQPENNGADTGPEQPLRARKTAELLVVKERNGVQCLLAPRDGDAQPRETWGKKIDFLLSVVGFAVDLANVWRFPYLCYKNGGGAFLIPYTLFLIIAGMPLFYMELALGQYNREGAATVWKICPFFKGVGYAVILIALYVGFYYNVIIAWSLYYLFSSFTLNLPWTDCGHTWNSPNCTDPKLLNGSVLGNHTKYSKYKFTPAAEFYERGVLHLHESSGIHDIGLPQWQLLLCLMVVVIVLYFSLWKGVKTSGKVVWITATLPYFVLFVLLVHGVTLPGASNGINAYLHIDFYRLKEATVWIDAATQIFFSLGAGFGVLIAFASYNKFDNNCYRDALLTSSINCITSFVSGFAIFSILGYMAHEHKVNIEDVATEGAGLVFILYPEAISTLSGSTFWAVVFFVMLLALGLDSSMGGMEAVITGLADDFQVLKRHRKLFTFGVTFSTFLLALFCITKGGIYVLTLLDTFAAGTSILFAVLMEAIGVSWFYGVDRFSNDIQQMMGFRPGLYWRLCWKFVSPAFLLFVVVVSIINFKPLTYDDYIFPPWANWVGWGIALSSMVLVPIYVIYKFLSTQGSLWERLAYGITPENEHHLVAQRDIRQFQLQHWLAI
T2 sequence (P20309 whole entry): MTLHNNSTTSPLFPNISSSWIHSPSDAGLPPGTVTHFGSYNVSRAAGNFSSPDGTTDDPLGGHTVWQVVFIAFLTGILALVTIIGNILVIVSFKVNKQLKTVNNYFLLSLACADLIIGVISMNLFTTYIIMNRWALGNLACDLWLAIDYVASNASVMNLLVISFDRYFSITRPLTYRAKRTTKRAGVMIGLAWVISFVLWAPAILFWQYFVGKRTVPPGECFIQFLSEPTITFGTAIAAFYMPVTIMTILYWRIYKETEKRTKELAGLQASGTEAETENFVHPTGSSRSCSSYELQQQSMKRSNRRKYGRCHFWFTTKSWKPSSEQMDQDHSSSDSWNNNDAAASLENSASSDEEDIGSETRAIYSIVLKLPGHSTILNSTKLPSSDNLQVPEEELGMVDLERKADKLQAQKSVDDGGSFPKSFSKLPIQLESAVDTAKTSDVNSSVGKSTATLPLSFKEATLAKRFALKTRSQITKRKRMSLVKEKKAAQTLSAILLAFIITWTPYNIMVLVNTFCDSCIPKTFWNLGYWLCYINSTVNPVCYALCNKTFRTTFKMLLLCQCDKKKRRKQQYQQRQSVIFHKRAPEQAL

For orientation: inhibition means the drop in the measured response relative to a control, in per cent. For `CN1CCCC(O)C1C(c1ccccc1)c1ccccc1` (stereo not drawn) [Benedin, 2-benzhydryl-3-hydroxy-N-methyl-piperidine], the “DI Discrimination Index = 100 × (N − F)/(N + F)” value with Mice, C57BL/6J, male (Benedin 0.1 mg/kg i.p. 30 min before sample trial) is “not significantly different from 0”; in the assay with Mice, C57BL/6J, male (Benedin 0.1 mg/kg i.p. 30 min before sample trial, listed as NLS-11), 12.0; in the assay on Mice, C57BL/6J, male (Benedin 0.5 mg/kg i.p. 30 min before sample trial), “significantly higher than 0”; in the assay on Mice, C57BL/6J, male (Benedin 0.5 mg/kg i.p. 30 min before sample trial, listed as NLS-11), 23.5; with Mice, C57BL/6J, male (Benedin 1 mg/kg i.p. 30 min before sample trial), “not significantly different from 0”; in the assay on Mice, C57BL/6J, male (Benedin 1 mg/kg i.p. 30 min before sample trial, listed as NLS-11), 13.0. Besides, the “recognition of the familiar object, i.e. memory” value in the assay with Mice, C57BL/6J, male (Benedin 0.1 mg/kg i.p.) was “not significant”; with Mice, C57BL/6J, male (Benedin 0.5 mg/kg i.p.), “significant”; in the assay with Mice, C57BL/6J, male (Benedin 1 mg/kg i.p.), “not significant”. Moreover, the “N − F Exploration time novel − familiar object” value is recorded as “not significantly different from 0” in the assay with Mice, C57BL/6J, male (Benedin 0.1 mg/kg i.p.); 3.4 s with Mice, C57BL/6J, male (Benedin 0.1 mg/kg i.p., listed as NLS-11); “significantly higher than 0” with Mice, C57BL/6J, male (Benedin 0.5 mg/kg i.p.); 6.2 s with Mice, C57BL/6J, male (Benedin 0.5 mg/kg i.p., listed as NLS-11); “not significantly different from 0” in the assay with Mice, C57BL/6J, male (Benedin 1 mg/kg i.p.); 4.0 s in the assay with Mice, C57BL/6J, male (Benedin 1 mg/kg i.p., listed as NLS-11). In addition, the inhibition at 10 µM was 71.9% in assay [1] (10^−5 M, read-out: % Inhibition at 10^−5M Benedin) and 44.6% in assay [2]. Further, the “% Inhibition at 10^−5M Benedin” value in assay [1] is reported as “appreciable potencies”.
